Experimental data: paper PMC7854510 (Molecular microbiology, 2020)

Target: T1, rLacR (UA159) (Streptococcus mutans, UniProt P26422)
T1 sequence (P26422 1-251): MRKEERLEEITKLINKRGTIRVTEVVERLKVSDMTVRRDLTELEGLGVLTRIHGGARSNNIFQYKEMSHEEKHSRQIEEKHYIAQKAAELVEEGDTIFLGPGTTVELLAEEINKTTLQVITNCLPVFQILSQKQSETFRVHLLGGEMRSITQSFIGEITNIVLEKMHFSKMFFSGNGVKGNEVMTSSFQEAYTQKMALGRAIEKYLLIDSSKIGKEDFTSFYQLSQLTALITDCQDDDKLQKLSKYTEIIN
Test: DNase I footprinting by capillary electrophoresis
Type: binding
Settings: 5 mM; fluorescent UA159 lacA probe

## O=P(O)(O)OC[C@H]1OC(O)[C@H](O)[C@@H](O)[C@H]1O (stereo partly shown) [Gal-6-P]
  DNase I footprinting by capillary electrophoresis (DFACE): addition of Gal-6-P resulted in the appearance of a DNase I hyper-sensitive site
